Reference: patent US5364623A, “Antibiotic produced by Bacillus subtilis ATCC 55422 capable of inhibiting bacteria” (Bristol-Myers Squibb Company, priority 1993, dated 1994)
Values after ≈ are worked out from the molar mass of the structure shown.

Legend:
[1] = test system: Escherichia coli SGB-10857; test: MIC, liquid broth tube dilution assay, E. coli SGB-10857; type: cell-based; settings: H108 medium, 37° C., 6-7 hours
Description: (§1) (1) Determination of the minimum concentration of bacillaene required for total inhibition of growth (MIC) was performed using liquid H108 medium containing Bacto-Tryptone (10g); Bacto-yeast extract (5 g); NaCl (5 g); and distilled water (1 liter). The assays were performed in 13×100 mm glass tubes in a final volume of 0.5 ml. Two fold dilutions of the compound were utilized. The cultures were incubated at 37° C. in a test-tube rack on a shaker. Presence of turbidity was used as an indicator of growth. The tubes were read after 6-7 hours of incubation.

Escherichia coli impB = test: MIC, liquid broth tube dilution assay, E. coli impB; type: cell-based; settings: H108 medium, 37° C., 6-7 hours
Description: as §1

[2] = test system: Staphylococcus aureus SC-2400; test: Agar diffusion, S. aureus SC-2400; type: cell-based; settings: 25 μg per well, overnight at 37° C.
Description: (§2) (3) The effect of bacillaene on a wide spectrum of bacteria was determined using the agar diffusion method. The bacteria to be tested were grown in […] broth overnight at 37° C. This culture was used to inoculate […] agar using a standard pour plate method. A 1% inoculum of the overnight culture was used. Wells of 2 mm diameter were punched in the agar and bacillaene (25 μg) was loaded in each well. The plates were incubated overnight at 37° C. and lack of growth around the agar well was scored as inhibition by bacillaene of the growth of the organism.

Escherichia coli SGB-888 = test: MIC, liquid broth tube dilution assay, E. coli SGB-888; type: cell-based; settings: H108 medium, 37° C., 6-7 hours
Description: as §1

[3] = test system: Procaryotic in vitro transc.-transl. sys.; test: In vitro protein synthesis, procaryotic transcription-translation coupled system (35S incorporation); type: biochemical
From the text: A prokaryotic in vitro transcription-translation coupled system was used for these experiments (Promega Corporation, 2800, Woods Hollow Road, Madison, Wis.).

Escherichia coli = test: MIC, liquid broth tube dilution, E. coli strains overall; type: cell-based
Description: as §1

[4] = test system: Rabbit reticulocyte in vitro trans. sys.; test: In vitro protein synthesis, eucaryotic (rabbit reticulocyte) translation system; type: biochemical
[5] = test system: Staphylococcus aureus 209P; test: Agar diffusion, S. aureus 209P; type: cell-based; settings: 25 μg per well, overnight at 37° C.
Description: as §2

[6] = test system: Escherichia coli BAS-2006; test: MIC, liquid broth tube dilution assay, E. coli BAS-2006; type: cell-based; settings: H108 medium, 37° C., 6-7 hours
Description: as §1

Saccharomyces cervesiae = test: Growth of eukaryotic cells; type: cell-based
Escherichia coli K-10 = test: MIC, liquid broth tube dilution assay, E. coli K-10; type: cell-based; settings: H108 medium, 37° C., 6-7 hours
Description: as §1

Q: What does the source list for C/C(=C/C=C/C=C/C(C)C(=O)O)NC(=O)CC(O)\C(C)=C/C=C\C=C(C)\C=C\C=C/C=C/CNC(=O)C(O)CC(C)C (stereo not shown) [Bacillaene, bacillaene]?
A: MIC [1]: 5.0 µg/mL (≈ 8.61 µM); MIC (Escherichia coli impB): 0.50 µg/mL (≈ 0.861 µM); Growth Inhibition [2]: ++ (hazy); MIC (Escherichia coli SGB-888): 0.09 µg/mL (≈ 0.155 µM); inhibition of procaryotic protein synthesis (in words) ([3]; 35S incorporation into trichloroacetic-acid-precipitable polypeptides): potent inhibitor of procaryotic protein synthesis; Inhibition of in vitro protein synthesis, procaryotic in vitro transc.-transl. sys. ([3]; final conc. 0.75 μg/ml): > 88.0%; Inhibition of in vitro protein synthesis, procaryotic in vitro transc.-transl. sys. ([3]; final conc. 1.5 μg/ml): > 95.0%; potency against certain strains of Escherichia coli (in words) (Escherichia coli): extremely potent; inhibition of eucaryotic in vitro protein translation system (in words) ([4]; at the concentrations tested): failed to inhibit; Inhibition of in vitro protein synthesis, rabbit reticulocyte in vitro trans. sys. ([4]; final conc. 0.75 μg/ml): < 7.0%; Inhibition of in vitro protein synthesis, rabbit reticulocyte in vitro trans. sys. ([4]; final conc. 1.5 μg/ml): < 7.0%; Inhibition of in vitro protein synthesis, rabbit reticulocyte in vitro trans. sys. ([4]; final conc. 6.0 μg/ml): < 7.0%; Growth Inhibition [5]: ++ (hazy); MIC [6]: 0.60 µg/mL (≈ 1.03 µM); effect on growth of eukaryotic cells (in words) (Saccharomyces cervesiae): not observed to affect the growth; MIC (Escherichia coli K-10): 37.0 µg/mL (≈ 63.7 µM)
